Here are results for 23 compounds from ChEMBL document CHEMBL4414596, “Highly Oxygenated Triterpenoids and Rare Tetraterpenoids from Abies chensiensis and Their Antibacterial Activity” (2019).

Values after ≈ are worked out from the molar mass of the structure shown. Active and inactive are the calls of the source. The rule behind the calls is not given here.

What is called MIC is the lowest concentration found to suppress growth. Low values mean inhibition by little substance, high ones a need for much substance.

In one assay the test system is Klebsiella pneumoniae. The experiment in a line: Antibacterial activity against Klebsiella pneumoniae after 24 hrs by broth microdilution method. Format: functional. (In general: Broth dilution looks for growth in wells or tubes with falling amounts of substance.)
The next assay deals with Escherichia coli. The experiment in a line: Antibacterial activity against Escherichia coli after 24 hrs by broth microdilution method. Format: functional.
In assay [1] the test system is Bacillus subtilis. Nature of the assay: Antibacterial activity against Bacillus subtilis after 24 hrs by broth microdilution method. Format: functional.
The test system of a further assay is Staphylococcus aureus. Nature of the assay: Antibacterial activity against Staphylococcus aureus after 24 hrs by broth microdilution method. Format: functional.
Assay [2] concerns Bacillus subtilis. Nature of the assay: Induction of morphological changes in Bacillus subtilis assessed as wrinkled surface at 10 to 40 ug/ml after 24 hrs by SEM analysis. The class given is functional, organism-based.
Assay [3] concerns Bacillus subtilis. Nature of the assay: Induction of morphological changes in Bacillus subtilis assessed as cell disruption at 10 to 40 ug/ml after 24 hrs by SEM analysis. The class given is functional, organism-based.
Assay [4] relates to Bacillus subtilis. The experiment in a line: Antibacterial activity against Bacillus subtilis assessed as growth inhibition at 5 to 80 ug/ml after 2 to 26 hrs relative to control. Format: functional.
Assay [5] relates to Bacillus subtilis. Nature of the assay: Induction of morphological changes in Bacillus subtilis assessed as irregular size at 10 to 40 ug/ml after 24 hrs by SEM analysis. Format: functional, organism-based.
Assay [6] deals with Bacillus subtilis. The experiment in a line: Induction of morphological changes in Bacillus subtilis assessed as slender shape at 10 to 40 ug/ml after 24 hrs by SEM analysis. The class given is functional, organism-based.
Assay [7] concerns Bacillus subtilis. The experiment in a line: Antibacterial activity against Bacillus subtilis assessed as growth inhibition at 10 to 80 ug/ml measured up to 26 hrs relative to control. The class given is functional.
Assay [8] concerns Bacillus subtilis. Nature of the assay: Antibacterial activity against Bacillus subtilis assessed as growth inhibition at 5 ug/ml after 10 hrs. Format: functional, organism-based.

Turning to `CC1(C)S[C@@H]2[C@H](NC(=O)[C@H](N)c3ccccc3)C(=O)N2[C@H]1C(=O)O` [AMPICILLIN], the MIC is greater than 40 µg/mL in the assay on Klebsiella pneumoniae, greater than 40 µg/mL with Escherichia coli, greater than 40 µg/mL against Bacillus subtilis [1] and 40 µg/mL (≈ 114 µM) against Staphylococcus aureus.
With `C/C(=C\CC[C@@H](C)[C@H]1CC[C@@]2(C)[C@@H]3CC[C@H]4C(C)(C)[C@H](O)CC[C@@]45C[C@@]35CC[C@]12C)C(=O)O` [ISOMANGIFEROLIC ACID], the MIC against Klebsiella pneumoniae, against Escherichia coli, in the assay on Bacillus subtilis [1] and against Staphylococcus aureus was greater than 40 µg/mL in each case.
On to `C[C@H](CC[C@H](O)[C@](C)(O)CO)[C@H]1CC[C@@]2(C)[C@@H]3CC[C@H]4C(C)(C)[C@@H](O)CC[C@@]45C[C@@]35CC[C@]12C` (relative stereo), for which the MIC against Klebsiella pneumoniae, against Escherichia coli, against Bacillus subtilis [1] and against Staphylococcus aureus was greater than 40 µg/mL in each case.
Turning to `C/C(=C\CC[C@@H](C)[C@H]1[C@@H](O)[C@@H](O)[C@@]2(C)[C@@H]3CC[C@H]4C(C)(C)C(=O)CC[C@@]45C[C@@]35CC[C@]12C)C(=O)O`, the MIC with Klebsiella pneumoniae, in the assay with Escherichia coli, in the assay with Bacillus subtilis [1] and in the assay with Staphylococcus aureus was greater than 40 µg/mL in each case.
On to `C/C(=C\CC[C@@H](C)[C@H]1CC[C@@]2(C)[C@@H]3CC[C@H]4C(C)(C)C(=O)CC[C@@]45C[C@@]35CC[C@]12C)C(=O)O` [MANGIFERONIC ACID], for which the MIC with Klebsiella pneumoniae, with Escherichia coli, in the assay with Bacillus subtilis [1] and in the assay with Staphylococcus aureus was greater than 40 µg/mL throughout.
In the case of `C/C(=C\CC[C@@H](C)[C@H]1C[C@@H](O)[C@@]2(C)[C@@H]3CC[C@H]4C(C)(C)[C@H](O)CC[C@@]45C[C@@]35CC[C@]12C)C(=O)O`, the MIC against Klebsiella pneumoniae was greater than 40 µg/mL; against Escherichia coli, greater than 40 µg/mL; against Bacillus subtilis [1], 10 µg/mL (≈ 21.2 µM); in the assay on Staphylococcus aureus it was greater than 40 µg/mL.
In the case of `CC1=C[C@@H](C[C@@H](C)[C@H]2CC[C@@]3(C)[C@@H]4CC[C@H]5C(C)(C)[C@@H](O)CC[C@@]56C[C@@]46CC[C@]23C)OC1=O`, the MIC in the assay on Klebsiella pneumoniae, in the assay with Escherichia coli, with Bacillus subtilis [1] and in the assay with Staphylococcus aureus was greater than 40 µg/mL throughout.
With `CO[C@@H]1CC[C@]23C[C@]24CC[C@]2(C)[C@@H]([C@H](C)CC/C=C(\C)C(=O)O)[C@@H](O)[C@@H](O)[C@@]2(C)[C@@H]4CC[C@H]3C1(C)C`, the MIC is greater than 40 µg/mL in the assay on Klebsiella pneumoniae, greater than 40 µg/mL with Escherichia coli, 20 µg/mL (≈ 39.8 µM) in the assay on Bacillus subtilis [1] and 20 µg/mL (≈ 39.8 µM) against Staphylococcus aureus.
Take `O=C(N[C@H](CO)[C@H](O)c1ccc([N+](=O)[O-])cc1)C(Cl)Cl` [CHLORAMPHENICOL]: the MIC against Klebsiella pneumoniae was greater than 40 µg/mL; in the assay on Escherichia coli, greater than 40 µg/mL; in the assay on Bacillus subtilis [1], 5 µg/mL (≈ 15.5 µM); with Staphylococcus aureus it was 20 µg/mL (≈ 61.9 µM).
Take `C/C(=C\CC[C@@H](C)[C@H]1C[C@@H](O)[C@@]2(C)[C@@H]3CC[C@H]4C(C)(C)C(=O)CC[C@@]45C[C@@]35CC[C@]12C)C(=O)O`: the outcome in the assay with Bacillus subtilis [2], in the assay on Bacillus subtilis [3], in the assay with Bacillus subtilis [5] and in the assay with Bacillus subtilis [6] was Active. Moreover, the MIC is greater than 40 µg/mL with Klebsiella pneumoniae, greater than 40 µg/mL against Escherichia coli, 5 µg/mL (≈ 10.6 µM) against Bacillus subtilis [1] and 40 µg/mL (≈ 85 µM) in the assay with Staphylococcus aureus. Moreover, the “growth inhibition (GI)” value with Bacillus subtilis [4] is recorded as 100%.
For the compound `C/C(=C\[C@@H](O)C[C@@H](C)[C@H]1CC[C@@]2(C)[C@@H]3CC[C@H]4C(C)(C)[C@@H](O)CC[C@@]45C[C@@]35CC[C@]12C)C(=O)O`, the MIC is greater than 40 µg/mL against Klebsiella pneumoniae, greater than 40 µg/mL with Escherichia coli, 20 µg/mL (≈ 42.3 µM) in the assay with Bacillus subtilis [1] and greater than 40 µg/mL against Staphylococcus aureus.
Turning to `C/C(=C\[C@@H](O)C[C@@H](C)[C@H]1CC[C@@]2(C)C3=C(CC[C@]12C)[C@@]1(C)CCC(=O)C(C)(C)[C@@H]1CC3)C(=O)O`, the minimal inhibitory concentration (MIC) in the assay on Klebsiella pneumoniae was greater than 40 µg/mL; with Escherichia coli, greater than 40 µg/mL; with Bacillus subtilis [1], 10 µg/mL (≈ 21.2 µM); with Staphylococcus aureus, 40 µg/mL (≈ 85 µM).
`CC1=CC(O)(C[C@@H](C)[C@H]2CC[C@@]3(C)C4=C(CC[C@]23C)[C@@]2(C)CCC(=O)C(C)(C)[C@@H]2CC4)OC1=O` (some centres not stated): the MIC against Klebsiella pneumoniae, against Escherichia coli, in the assay on Bacillus subtilis [1] and against Staphylococcus aureus was greater than 40 µg/mL throughout.
Turning to `C=C1CC[C@@](C)([C@H](C)CC(=O)[C@H]2CC(CCC=C(C)C)=CC[C@]2(C)C(=O)O)[C@@]12CCC1=C2CC[C@H]2C(C)(C)[C@@H](O)CC[C@]12C`, the MIC against Klebsiella pneumoniae, against Escherichia coli, against Bacillus subtilis [1] and in the assay with Staphylococcus aureus was greater than 40 µg/mL throughout.
For the compound `C=C1CC[C@@](C)([C@H](C)CC(=O)C[C@@H](C)C(=O)O)[C@@]12CCC1=C2CC[C@H]2C(C)(C)C(=O)CC[C@]12C`, the minimal inhibitory concentration (MIC) with Klebsiella pneumoniae was greater than 40 µg/mL; against Escherichia coli, greater than 40 µg/mL; in the assay on Bacillus subtilis [1], 10 µg/mL (≈ 21.3 µM); in the assay with Staphylococcus aureus it was 40 µg/mL (≈ 85.3 µM).
`C[C@H](CC[C@@H](O)C(C)(C)O)[C@H]1CC[C@@]2(C)[C@@H]3CC[C@H]4C(C)(C)C(=O)CC[C@@]45C[C@@]35CC[C@]12C`: the MIC with Klebsiella pneumoniae, in the assay on Escherichia coli, in the assay with Bacillus subtilis [1] and with Staphylococcus aureus was greater than 40 µg/mL in each case.
Take `CC1=C[C@@H](C[C@@H](C)[C@H]2C[C@@H](O)[C@@]3(C)[C@@H]4CC[C@H]5C(C)(C)[C@H](O)CC[C@@]56C[C@@]46CC[C@]23C)OC1=O`: the minimum inhibitory concentration (MIC) against Klebsiella pneumoniae, in the assay with Escherichia coli, with Bacillus subtilis [1] and against Staphylococcus aureus was greater than 40 µg/mL in each case.
Regarding `CN[C@@H]1[C@H](O[C@H]2[C@H](O[C@H]3[C@H](O)[C@@H](O)[C@H](N=C(N)N)[C@@H](O)[C@@H]3N=C(N)N)O[C@@H](C)[C@]2(O)C=O)O[C@@H](CO)[C@H](O)[C@H]1O` [STREPTOMYCIN], the MIC in the assay with Klebsiella pneumoniae and in the assay on Escherichia coli was 5 µg/mL (≈ 8.6 µM) each time.
`C[C@H](CC[C@H](O)[C@](C)(O)CO)[C@H]1CC[C@@]2(C)[C@@H]3CC[C@H]4C(C)(C)C(=O)CC[C@@]45C[C@@]35CC[C@]12C` (relative stereo): the MIC against Klebsiella pneumoniae, in the assay with Escherichia coli, with Bacillus subtilis [1] and with Staphylococcus aureus was greater than 40 µg/mL in each case.
Regarding `CO[C@@H]1CC[C@]23C[C@]24CC[C@]2(C)[C@@H]([C@H](C)C[C@H](O)/C=C(\C)C(=O)O)CC[C@@]2(C)[C@@H]4CC[C@H]3C1(C)C`, the minimal inhibitory concentration (MIC) in the assay with Klebsiella pneumoniae, in the assay on Escherichia coli, in the assay with Bacillus subtilis [1] and with Staphylococcus aureus was greater than 40 µg/mL throughout.
`C/C(=C\CC[C@@H](C)[C@H]1C[C@@H](O)[C@@]2(C)[C@@H]3CC[C@H]4C(C)(C)[C@@H](O)CC[C@@]45C[C@@]35CC[C@]12C)C(=O)O`: the “growth inhibition (GI)” value with Bacillus subtilis [7] is listed as 100%. The minimal inhibitory concentration (MIC) in the assay on Klebsiella pneumoniae was greater than 40 µg/mL; in the assay on Escherichia coli, greater than 40 µg/mL; against Bacillus subtilis [1] it was 10 µg/mL (≈ 21.2 µM); in the assay with Staphylococcus aureus, 20 µg/mL (≈ 42.3 µM). Further, the “growth inhibition (GI)” value with Bacillus subtilis [8] is “Active”.
Regarding `C/C(=C\CC[C@@H](C)[C@H]1CC[C@@]2(C)[C@@H]3CC[C@H]4C(C)(C)[C@@H](O)CC[C@@]45C[C@@]35CC[C@]12C)C(=O)O` [MANGIFEROLIC ACID], the MIC in the assay with Klebsiella pneumoniae, in the assay with Escherichia coli, against Bacillus subtilis [1] and in the assay with Staphylococcus aureus was greater than 40 µg/mL each time.
As for `CO[C@@H]1CC[C@]23C[C@]24CC[C@]2(C)[C@@H]([C@H](C)CC/C=C(\C)C(=O)O)C[C@@H](O)[C@@]2(C)[C@@H]4CC[C@H]3C1(C)C`, the minimum inhibitory concentration (MIC) in the assay on Klebsiella pneumoniae was greater than 40 µg/mL; with Escherichia coli, greater than 40 µg/mL; against Bacillus subtilis [1] it was 20 µg/mL (≈ 41.1 µM); with Staphylococcus aureus, greater than 40 µg/mL.
